Laboratory results published in publication doi:10.1101/2024.04.22.590490v1 (biorxiv, 2024).

Key:
GSK-3β = GSK-3β (Homo sapiens, UniProt P49841); assay: ADP-Glo luminescent kinase assay; format: biochemical
GSK-3α = GSK-3α (Homo sapiens, UniProt P49840); assay: ADP-Glo luminescent kinase assay; format: biochemical
GSK-3α, sequence (P49840 2-483): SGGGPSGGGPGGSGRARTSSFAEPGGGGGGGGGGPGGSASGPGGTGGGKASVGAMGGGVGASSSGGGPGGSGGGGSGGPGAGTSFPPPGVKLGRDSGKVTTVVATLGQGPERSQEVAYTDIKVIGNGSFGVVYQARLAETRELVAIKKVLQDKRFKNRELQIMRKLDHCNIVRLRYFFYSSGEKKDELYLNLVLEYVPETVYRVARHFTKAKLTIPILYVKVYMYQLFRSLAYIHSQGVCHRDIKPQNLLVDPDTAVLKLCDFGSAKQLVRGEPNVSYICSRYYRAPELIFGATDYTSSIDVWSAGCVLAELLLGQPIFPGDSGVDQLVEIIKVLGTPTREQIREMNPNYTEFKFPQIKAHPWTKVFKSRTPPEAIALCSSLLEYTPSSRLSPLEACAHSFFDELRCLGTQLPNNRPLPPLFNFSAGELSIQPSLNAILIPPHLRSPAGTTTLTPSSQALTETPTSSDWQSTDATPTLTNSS

GSK-3β, sequence (P49841 whole entry): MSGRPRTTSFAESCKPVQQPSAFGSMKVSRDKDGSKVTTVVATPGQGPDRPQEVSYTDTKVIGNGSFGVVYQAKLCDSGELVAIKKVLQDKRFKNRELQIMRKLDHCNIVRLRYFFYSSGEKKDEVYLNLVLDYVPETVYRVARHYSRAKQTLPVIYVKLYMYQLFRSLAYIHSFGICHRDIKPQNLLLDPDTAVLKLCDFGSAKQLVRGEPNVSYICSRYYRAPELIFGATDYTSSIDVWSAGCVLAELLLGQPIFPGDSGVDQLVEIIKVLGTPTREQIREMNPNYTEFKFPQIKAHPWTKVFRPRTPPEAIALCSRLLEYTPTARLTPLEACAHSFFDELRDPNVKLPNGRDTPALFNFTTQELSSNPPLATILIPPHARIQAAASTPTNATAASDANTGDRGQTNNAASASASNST

Row | IC50 (GSK-3β) [µM] | IC50 (GSK-3α) [µM] | SMILES
1 | 2.25 | 5.14 | O=C(/C=C/c1ccc(O)c(O)c1)O[C@H](Cc1ccc(O)c(O)c1)C(=O)O [Rosmarinic acid]
2 | 4.24 | 2.27 | CC(C)=CCc1cc2c(cc1O)oc(=O)c1c3ccc(O)cc3oc21 [Psoralidin]
